In patent publication US7354588B1, “Functional derivatives of ICAM-1 with altered ability to bind LFA-1 or HRV” (Dana Farber Cancer Institute, priority 1987, dated 2008):
*1 amine or outer side, *2 acyl side, *3 side chain or, on linkers, in order; H or OH if unused. Where a SMILES comes first, the peptide text is derived from it. Bridges are numbered along the chain shown (N, C = ends). Roman numbers before positions name the chains, in order. [ ]: non-standard residue; d: D form. Actinocin(9to1) = Cc1c2oc3c(C)ccc(C(=O)[*:1])c3nc-2c(C(=O)[*:2])c(N)c1=O; NMeV = CN[C@H](C(=O)O)C(C)C; Sar = CNCC(=O)O

Tests used:
Format in all cases: cell-based
[1] = test system: ICAM-1 expression on human dermal fibroblasts; assay: ^125I goat anti-mouse IgG binding assay, anti-ICAM-1, dermal fibroblasts
Experimental: (§1) The kinetics of interleukin 1 and gamma interferon effects on ICAM-1 expression on dermal fibroblasts were determined using the ^125I goat anti-mouse IgG binding assay of Dustin, M. L. et al. (J. Immunol. 137:245-254 (1986); which reference is herein incorporated by reference). To perform this binding assay, human dermal fibroblasts were grown in a 96-well microtiter plate to a density of 2−8×10^4 cells/well (0.32 cm^2). The cells were washed twice with RPMI 1640 medium supplemented as described in Example 1. The cells were additionally washed once with Hanks Balanced Salt Solution (HBSS), 10 mM HEPES, 0.05% NaN3 and 10% heat-inactivated fetal bovine serum. Washing with this binding buffer was done at 4° C. To each well was added 50 μl of the above-described binding buffer and 50 μl of the appropriate hybridoma supernatant with X63 and W6/32 as the negative and positive controls, respectively. After incubation for 30 minutes at 4° C., with gentle agitation, the wells were washed twice with binding buffer, and the second antibody ^125I-goat anti-mouse IgG, was added at 50 nCi in 100 μl. The ^125I-goat anti-mouse antibody was prepared by using Iodogen (Pierce) according to the method of Fraker, P. J. et al. (Biochem. Biophys. Res. Commun. 80:849 (1978)). After 30 minutes at 4° C., the wells were washed twice with 200 μl of binding buffer and the cell layer was solubilized by adding 100 μl of 0.1 N NaOH. This and a 100 μl wash were counted in a Beckman 5500 gamma counter. The specific counts per minute bound was calculated as [cpm with monoclonal antibody]-[cpm with X63]. All steps, including induction with specific reagents, were carried out in quadruplicate.

[2] = test system: HLA-A,B,C expression on human dermal fibroblasts; assay: ^125I goat anti-mouse IgG binding assay, anti-HLA-A,B,C, dermal fibroblasts
Experimental: as §1

[3] = test system: ICAM-1 expression on human umbilical vein endothelial cells (HUVEC); assay: Radioimmune assay of ICAM-1 expression with ^125I RR1/1, HUVEC
Experimental: (§2) In order to measure ICAM-1 expression, a radioimmune assay was developed. In this assay, purified RR1/1 was iodinated using iodogen to a specific activity of 10 μCi/μg. Endothelial cells were grown in 96 well plates and treated as described for each experiment. The plates were cooled at 4° C. by placing in a cold room for 0.5-1 hr, not immediately on ice. The monolayers were washed 3× with cold complete media and then incubated 30 m at 4° C. with ^125I RR1/1. The monolayers were then washed 3× with complete media. The bound 125, was released using 0.1 N NaOH and counted. The specific activity of the ^125I RR1/1 was adjusted using unlabeled RR1/1 to obtain a linear signal over the range of antigen densities encountered in this study. Non-specific binding was determined in the presence of a thousand fold excess of unlabeled RR1/1 and was subtracted from total binding to yield the specific binding.
(§3) Upregulation of ICAM-1 expression on HVEC and HSVEC-HUVEC or HSVEC were seeded into 96 well plates at 1:3 from a confluent monolayer and allowed to grow to confluence. Cells were then treated with the indicated materials or media for 16 hr and the RIA done as in methods. All points were done in quadruplicate.

[4] = test system: ICAM-1 expression on human saphenous vein endothelial cells (HSVEC); assay: Radioimmune assay of ICAM-1 expression with ^125I RR1/1, HSVEC
Experimental: as §2, §3

[5] = cycloheximide 20 μg/ml, actinomycin D 10 μM
[6] = cells treated with IFN-γ (10 U/ml) (18 hr), alone or plus the inhibitor named
[7] = cells treated with IFN-γ (10 U/ml) (18 hr), alone or plus the inhibitor named (cycloheximide 20 μg/ml, actinomycin D 10 μM)
[8] = 16 hr, same concentrations as CPM
[9] = IL-1 beta 100 ng/ml, rTNF 50 ng/ml, Interferon-gamma 10,000 U/ml

Row | Compound | effect on interleukin 1 and gamma interferon induced ICAM-1 expression on fibroblasts [1, 5] | ^125I Goat Anti-Mouse IgG Specifically Bound (cpm), anti-HLA-A,B,C [2, 6] | ^125I Goat Anti-Mouse IgG Specifically Bound (cpm), anti-HLA-A,B,C ([2]; cells treated with IL 1 (10 U/ml) (4 hr), alone or plus the inhibitor named) | ^125I Goat Anti-Mouse IgG Specifically Bound (cpm), anti-HLA-A,B,C ([2]; no cytokine, Control (4 hr) 11928 ± 600, cycloheximide 20 μg/ml, actinomycin D 10 μM, tunicamycin 2 μg/ml, mean ± SD) | ^125I Goat Anti-Mouse IgG Specifically Bound (cpm), anti-ICAM-1 [1, 7] | ^125I Goat Anti-Mouse IgG Specifically Bound (cpm), anti-ICAM-1 ([1]; cells treated with IL 1 (10 U/ml) (4 hr), alone or plus the inhibitor named (cycloheximide 20 μg/ml, actinomycin D 10 μM, tunicamycin 2 μg/ml)) | ^125I Goat Anti-Mouse IgG Specifically Bound (cpm), anti-ICAM-1 ([1]; no cytokine, Control (4 hr) 1524 ± 140, cycloheximide 20 μg/ml, actinomycin D 10 μM, tunicamycin 2 μg/ml, mean ± SD) | ^125I Specifically bound (CPM), HUVEC ([3]; 16 hr, rIL-1 beta 100 ng/ml, rIL-1 alpha 50 ng/ml, rTNF alpha 50 ng/ml, LPS 10 μg/ml, rIFN gamma 10 ng/ml, polymyxin B 10 μg/ml, control 603 ± 11) | fold of control ICAM-1 expression, HUVEC [3, 8] | increase of ICAM-1 expression on HUVEC [3, 9] | ^125I Specifically bound (CPM), HSVEC ([4]; 16 hr, rIL-1 beta 100 ng/ml, rTNF alpha 50 ng/ml, LPS 10 μg/ml, rIFN gamma 10 ng/ml, control 1132 ± 31) | fold of control ICAM-1 expression, HSVEC [4, 8] | increase of ICAM-1 expression on HSVEC [4, 9] | half-life for ICAM-1 induction ([1]; human dermal fibroblasts, 10 U/ml)
1 | Cc1c2oc3c(C)ccc(C(=O)N[C@@H]4C(=O)N[C@H](C(C)C)C(=O)N5CCC[C@H]5C(=O)N(C)CC(=O)N(C)[C@@H](C(C)C)C(=O)O[C@@H]4C)c3nc-2c(C(=O)N[C@@H]2C(=O)N[C@H](C(C)C)C(=O)N3CCC[C@H]3C(=O)N(C)CC(=O)N(C)[C@@H](C(C)C)C(=O)O[C@@H]2C)c(N)c1=O [actinomycin D] (I: T[dV]P[Sar][NMeV] / II: T[dV]P[Sar][NMeV]; ester I:1-I:C, II:1-II:C; linker I:N-II:N via Actinocin(9to1)) | abolish the effects |  |  |  |  |  |  |  |  |  |  |  |  | 
2 | cycloheximide | abolish the effects | 10675 ± 800 cpm | 12676 ± 446 cpm | 10678 ± 471 cpm | 1461 ± 59 cpm | 1619 ± 381 cpm | 1513 ± 210 cpm |  |  |  |  |  |  | 
3 | rIFN gamma: recombinant gamma interferon |  | 23675 ± 500 cpm |  |  | 4659 ± 109 cpm |  |  | 3120 ± 308 CPM | 5.2x | 5.2 fold | 4002 ± 664 CPM | 3.5x | 3.5 fold | 3.75 h
